Read-outs that look alike come from different tables or passages of the source.
Legend:
Obese Zucker rats [1] = settings: rat, in vivo
Obese Zucker rats [2] = assay: In vivo assessment in obese Zucker rats: vascular inflammation markers (MCP-1, CRP, RBP-4, leptin, ICAM, adiponectin); settings: obese Zucker rats, daily 400 μg Cr(III)/kg, 8 weeks, mean; for Adiponectin / CRP / ICAM / MCP-1: plasma, ELISA
Obese Zucker rats [3] = assay: In vivo assessment in obese Zucker rats: key biological parameters (fasting glucose, HbA1c, vitamin C, GSH, RBC lipid peroxidation); settings: obese Zucker rats, daily 400 μg Cr(III)/kg, 8 weeks, mean; for RBC Lipid Peroxidase: malondialdehyde by thiobarbituric acid; for Fasting Glucose: fasted overnight; for Vitamin C: plasma
Obese Zucker rats [4] = assay: In vivo assessment in obese Zucker rats: other vascular inflammation markers (cAMP, TNFα, IL-6, OxyDNA); settings: obese Zucker rats, daily 400 μg Cr(III)/kg, 8 weeks, mean ± SE; for OxyDNA: oxidative DNA damage
Obese Zucker rats [5] = assay: In vivo assessment in obese Zucker rats: body weight and food intake; settings: obese Zucker rats, daily 400 μg Cr(III)/kg, mean; for Food Intake 5 wks: at 5 weeks; for Food Intake 7 wks: at 7 weeks
Obese Zucker rats [6] = assay: In vivo assessment in obese Zucker rats: blood lipid profile (total cholesterol, triglycerides, HDL); settings: daily 400 μg Cr(III)/kg, 8 weeks, mean
Obese Zucker rats [7] = assay: In vivo assessment in obese Zucker rats: clinical chemistry (AP, BUN, CRT, AST, ALT); settings: obese Zucker rats; mean ± SE

Molecule | Leptin (Obese Zucker rats [2]) | RBP-4 (Obese Zucker rats [2]) | Adiponectin (Obese Zucker rats [2]) | CRP (Obese Zucker rats [2]) | MCP-1 (Obese Zucker rats [2]) | RBC Lipid Peroxidase (Obese Zucker rats [3]) | Fasting Glucose (Obese Zucker rats [3]) | GSH (Obese Zucker rats [3]) | HbA1c (Obese Zucker rats [3]) | IL-6 (Obese Zucker rats [4]) | TNFα (Obese Zucker rats [4]) | cAMP (Obese Zucker rats [4]) | OxyDNA (Obese Zucker rats [4]) | HDL (Obese Zucker rats [6]) | Total Chol/HDL (Obese Zucker rats [6]) | Total Cholesterol (Obese Zucker rats [6]) | Triglyceride (Obese Zucker rats [6]) | ALT (Alanine Aminotransferease) (Obese Zucker rats [7]) | AP (Alkaline phosphatase) (Obese Zucker rats [7]) | AST (Aspartate Aminotransferase) (Obese Zucker rats [7]) | also measured
Chromium Picolinate + Biotin [CrP + Biotin] | – | – | – | – | – | – | – | – | – | – | – | – | – | – | – | – | – | – | – | – | ALT (Alanine Aminotransferease) (Obese Zucker rats [1]): 100.71 u/L; AP (Alkaline phosphatase) (Obese Zucker rats [1]): 64.00 u/L; AST (Aspartate Aminotransferase) (Obese Zucker rats [1]): 160.29 u/L; Anion Gap (Obese Zucker rats [1]): 25.86; BUN (Blood Urea Nitrogen) (Obese Zucker rats [1]): 19.14 mg/dL; BUN/CRT Ratio (Obese Zucker rats [1]): 46.50; CRT (Creatinine) (Obese Zucker rats [1]): 0.41 mg/dL; Total Bilirubin (Obese Zucker rats [1]): 0.10 mg/dL
Chromium Dinicotinate Argininate [Cr(nic)2Arg] | 335.80 pg/mL | 52537.50 ng/mL | 9279.38 ng/mL | 628.49 ng/mL | 3235.62 pg/mL | 2.47 nmol/mL | 628.87 mg/dL | 4.89 µmol/g | 16.56% | 92.35 ± 2.79 pg/mL | 17.84 ± 1.26 pg/mL | 38.96 ± 3.88 pmol/mL | 58.26 ± 2.57 ng/mL | 69.78 mg/dL | 3.00 ratio | 186.16 mg/dL | 554.65 mg/dL | – | – | – | ICAM (Obese Zucker rats [2]): 18591.76 pg/mL; Vitamin C (Obese Zucker rats [3]): 0.14 mg %; Food Intake 5 wks (Obese Zucker rats [5]): 40.22 g/day; Food Intake 7 wks (Obese Zucker rats [5]): 45.28 g/day
Chromium Dinicotinate Tryptophanate [Cr(nic)2Trp] | 363.21 pg/mL | 60017.14 ng/mL | 11752.86 ng/mL | 617.66 ng/mL | 2607.07 pg/mL | 1.96 nmol/mL | 513.43 mg/dL | 5.35 µmol/g | 15.55% | 92.09 ± 1.89 pg/mL | – | 30.36 ± 1.48 pmol/mL | 39.35 ± 3.48 ng/mL | 69.43 mg/dL | 2.86 ratio | 183.17 mg/dL | 470.67 mg/dL | – | – | – | ICAM (Obese Zucker rats [2]): 17950.97 pg/mL; Vitamin C (Obese Zucker rats [3]): 0.13 mg %; Food Intake 5 wks (Obese Zucker rats [5]): 40.49 g/day; Food Intake 7 wks (Obese Zucker rats [5]): 40.78 g/day
Chromium Dinicotinate Phenylalanine [Cr(nic)2Phe] | 351.16 pg/mL | 53891.43 ng/mL | 12712.86 ng/mL | 633.55 ng/mL | 1755.25 pg/mL | 1.97 nmol/mL | 510.43 mg/dL | 5.05 µmol/g | 15.95% | 84.82 ± 1.60 pg/mL | – | 31.60 ± 1.22 pmol/mL | 40.63 ± 3.74 ng/mL | 70.43 mg/dL | 2.87 ratio | 201.71 mg/dL | 583.00 mg/dL | – | – | – | ICAM (Obese Zucker rats [2]): 17480.50 pg/mL; Vitamin C (Obese Zucker rats [3]): 0.15 mg %; Food Intake 5 wks (Obese Zucker rats [5]): 38.16 g/day; Food Intake 7 wks (Obese Zucker rats [5]): 39.22 g/day
Chromium tris(5-hydroxytryptophan) [Cr(5HTP)3] | 359.61 pg/mL | 44517.99 ng/mL | 11831.51 ng/mL | 589.26 ng/mL | 1932.18 pg/mL | 1.93 nmol/mL | 585.25 mg/dL | 5.04 µmol/g | 16.15% | 94.32 ± 11.71 pg/mL | 13.35 ± 8.28 pg/mL | 25.64 ± 2.39 pmol/mL | 45.89 ± 4.53 ng/mL | 68.84 mg/dL | 2.72 ratio | 184.77 mg/dL | 452.96 mg/dL | 167.00 u/L | 25.00 u/L | 267.43 u/L | Anion Gap (Obese Zucker rats [7]): 29.43; BUN (Blood Urea Nitrogen) (Obese Zucker rats [7]): 22.86 mg/dL; BUN/CRT Ratio (Obese Zucker rats [7]): 57.29; CRT (Creatinine) (Obese Zucker rats [7]): 0.40 mg/dL; Total Bilirubin (Obese Zucker rats [7]): 0.10 mg/dL
Chromium Tryptophanate [CrTrp] | 601.72 pg/mL | 60593.24 ng/mL | 11122.93 ng/mL | 609.82 ng/mL | 2578.59 pg/mL | 1.78 nmol/mL | 402.77 mg/dL | 4.54 µmol/g | 14.16% | 86.62 ± 6.81 pg/mL | 36.61 ± 14.89 pg/mL | 20.03 ± 0.96 pmol/mL | 45.14 ± 2.77 ng/mL | 60.54 mg/dL | 3.46 ratio | 208.09 mg/dL | 921.22 mg/dL | 124.29 u/L | 30.00 u/L | 237.43 u/L | Anion Gap (Obese Zucker rats [7]): 30.14; BUN (Blood Urea Nitrogen) (Obese Zucker rats [7]): 17.43 mg/dL; BUN/CRT Ratio (Obese Zucker rats [7]): 45.86; CRT (Creatinine) (Obese Zucker rats [7]): 0.39 mg/dL; Total Bilirubin (Obese Zucker rats [7]): 0.10 mg/dL
CCC(=O)[O-].CCC(=O)[O-].CCC(=O)[O-].[Cr+3] [CrProp, Chromium Propionate, reference compound] | 393.47 pg/mL | 49851.91 ng/mL | 12903.52 ng/mL | 820.04 ng/mL | 4497.83 pg/mL | 2.18 nmol/mL | 549.49 mg/dL | 4.76 µmol/g | 16.90% | 90.50 ± 14.02 pg/mL | 41.14 ± 10.06 pg/mL | 26.95 ± 1.13 pmol/mL | 47.19 ± 5.07 ng/mL | 64.19 mg/dL | 2.68 ratio | 170.56 mg/dL | 456.14 mg/dL | 207.00 u/L | 32.20 u/L | 347.25 u/L | Anion Gap (Obese Zucker rats [7]): 29.20; BUN (Blood Urea Nitrogen) (Obese Zucker rats [7]): 22.25 mg/dL; BUN/CRT Ratio (Obese Zucker rats [7]): 53.40; CRT (Creatinine) (Obese Zucker rats [7]): 0.40 mg/dL; Total Bilirubin (Obese Zucker rats [7]): 0.10 mg/dL
Chromium Triphenylalanine [Cr(Phe)3, reference compound] | 387.92 pg/mL | 48555.98 ng/mL | 11243.47 ng/mL | 533.12 ng/mL | 2064.89 pg/mL | 2.01 nmol/mL | 549.70 mg/dL | 4.50 µmol/g | 15.04% | 89.82 ± 8.55 pg/mL | 15.92 ± 7.76 pg/mL | 29.62 ± 1.01 pmol/mL | 53.11 ± 4.76 ng/mL | 60.82 mg/dL | 2.84 ratio | 169.68 mg/dL | 467.04 mg/dL | 186.29 u/L | 30.00 u/L | 276.43 u/L | Anion Gap (Obese Zucker rats [7]): 29.00; BUN (Blood Urea Nitrogen) (Obese Zucker rats [7]): 20.71 mg/dL; BUN/CRT Ratio (Obese Zucker rats [7]): 52.14; CRT (Creatinine) (Obese Zucker rats [7]): 0.40 mg/dL; Total Bilirubin (Obese Zucker rats [7]): 0.10 mg/dL
Chromium Cinnamate [CrCin] | 379.18 pg/mL | 47905.13 ng/mL | 11507.60 ng/mL | 587.35 ng/mL | 2428.69 pg/mL | 3.12 nmol/mL | 557.37 mg/dL | 5.00 µmol/g | 15.61% | 92.94 ± 13.21 pg/mL | 8.62 ± 4.90 pg/mL | 29.24 ± 0.61 pmol/mL | 48.71 ± 1.25 ng/mL | 65.44 mg/dL | 2.94 ratio | 191.11 mg/dL | 507.35 mg/dL | – | – | – | ALT (Alanine Aminotransferease) (Obese Zucker rats [1]): 158.71 u/L; AP (Alkaline phosphatase) (Obese Zucker rats [1]): 30.71 u/L; AST (Aspartate Aminotransferase) (Obese Zucker rats [1]): 230.14 u/L; Anion Gap (Obese Zucker rats [1]): 29.86; BUN (Blood Urea Nitrogen) (Obese Zucker rats [1]): 21.43 mg/dL; BUN/CRT Ratio (Obese Zucker rats [1]): 51.86; CRT (Creatinine) (Obese Zucker rats [1]): 0.41 mg/dL; Total Bilirubin (Obese Zucker rats [1]): 0.10 mg/dL
Chromium Glucodinicotinate [Cr(nic)2Gluc] | 388.37 pg/mL | 48851.14 ng/mL | 11448.39 ng/mL | 530.74 ng/mL | 1977.46 pg/mL | 2.00 nmol/mL | 474.38 mg/dL | 4.62 µmol/g | 15.21% | 81.59 ± 5.21 pg/mL | 29.40 ± 8.87 pg/mL | 22.25 ± 1.58 pmol/mL | 45.10 ± 3.76 ng/mL | 65.71 mg/dL | 3.06 ratio | 197.33 mg/dL | 534.43 mg/dL | 138.00 u/L | 27.00 u/L | 238.67 u/L | Anion Gap (Obese Zucker rats [7]): 29.00; BUN (Blood Urea Nitrogen) (Obese Zucker rats [7]): 21.33 mg/dL; CRT (Creatinine) (Obese Zucker rats [7]): 0.40 mg/dL; Total Bilirubin (Obese Zucker rats [7]): 0.10 mg/dL; BUN/CRT Ratio (Obese Zucker rats [1]): 53.67

— patent US9700546B2, “Trivalent chromium compounds, compositions and methods of use” (INTERHEALTH NUTRACEUTICALS, INC., priority 2006, dated 2017)
